Earlier results in US9364497B2, “Treatment of cognitive disorders” (Isis Innovation Limited, priority 2010, dated 2016).

Tests used:
[1] = tested on: normal participants with baseline tHcy levels >13 μmol/L; conditions: 0.8 mg/d for three years
[2] = tested on: subjects with mild cognitive impairment; conditions: MCI
[3] = tested on: mild cognitive impairment; conditions: MCI; over four years

Nc1nc2ncc(CNc3ccc(C(=O)N[C@@H](CCC(=O)O)C(=O)O)cc3)nc2c(=O)[nH]1 [folic acid]
effect on cognitive tests [1]: beneficial effect on several cognitive tests

COc1ccc2c3c1O[C@H]1C[C@@H](O)C=C[C@@]31CCN(C)C2 [galantamine]
deaths in treatment groups versus placebo [2]: significantly greater number of deaths

CCN(C)C(=O)Oc1cccc([C@H](C)N(C)C)c1 [rivastigmine]
benefit on cognitive function [3]: no significant benefit
benefit on the progression rate to Alzheimer's Disease [3]: no significant benefit
